The NIST ThermoML archive (doi:10.1016/j.jct.2015.10.006)
Numbers after ± are expanded uncertainties.

Details: Liquid, Frequency=8 MHz, Pulse-echo method

CCCCO [butan-1-ol]
Details	speed of sound [m/s]
253.15 K, 108 kPa	1399.2 ± 0.73
253.15 K, 5065 kPa	1423.1 ± 0.74
253.15 K, 10086 kPa	1446.2 ± 0.74
253.15 K, 15035 kPa	1468.3 ± 0.75
253.15 K, 20115 kPa	1490.2 ± 0.76
253.15 K, 25062 kPa	1510.8 ± 0.77
253.15 K, 30526 kPa	1532.7 ± 0.78
273.15 K, 103 kPa	1326.1 ± 0.7
273.15 K, 5008 kPa	1351.9 ± 0.71
273.15 K, 10094 kPa	1377.2 ± 0.72
273.15 K, 15185 kPa	1401.4 ± 0.73
273.15 K, 20115 kPa	1424.1 ± 0.74
273.15 K, 25088 kPa	1446.1 ± 0.74
273.15 K, 30170 kPa	1467.9 ± 0.75
293.15 K, 104 kPa	1256.4 ± 0.67
293.15 K, 5067 kPa	1284.6 ± 0.69
293.15 K, 10144 kPa	1311.7 ± 0.69
293.15 K, 15081 kPa	1336.9 ± 0.7
293.15 K, 20094 kPa	1361.5 ± 0.71
293.15 K, 25087 kPa	1385 ± 0.72
293.15 K, 30176 kPa	1408.1 ± 0.73
313.15 K, 100 kPa	1189.2 ± 0.65
313.15 K, 5050 kPa	1219.2 ± 0.66
313.15 K, 10082 kPa	1248.2 ± 0.67
313.15 K, 15167 kPa	1276 ± 0.68
313.15 K, 20187 kPa	1302.2 ± 0.69
313.15 K, 25473 kPa	1328.5 ± 0.7
313.15 K, 30162 kPa	1351 ± 0.71
333.15 K, 99 kPa	1122.9 ± 0.62
333.15 K, 5055 kPa	1155.5 ± 0.64
333.15 K, 10099 kPa	1186.8 ± 0.65
333.15 K, 15058 kPa	1215.8 ± 0.66
333.15 K, 20149 kPa	1244.2 ± 0.67
333.15 K, 25167 kPa	1270.8 ± 0.68
333.15 K, 30276 kPa	1296.8 ± 0.69
353.15 K, 100 kPa	1056.4 ± 0.6
353.15 K, 5013 kPa	1091.6 ± 0.61
353.15 K, 10032 kPa	1125.3 ± 0.63
353.15 K, 15066 kPa	1157.1 ± 0.64
353.15 K, 20085 kPa	1187 ± 0.65
353.15 K, 25075 kPa	1215.1 ± 0.66
353.15 K, 30204 kPa	1242.7 ± 0.67

CCO [ethanol]
Details	speed of sound [m/s]
253.15 K, 101 kPa	1304.8 ± 0.73
253.15 K, 4988 kPa	1329.9 ± 0.74
253.15 K, 10126 kPa	1355.1 ± 0.75
253.15 K, 15056 kPa	1378.4 ± 0.76
253.15 K, 19988 kPa	1400.8 ± 0.77
253.15 K, 25051 kPa	1423 ± 0.78
253.15 K, 30366 kPa	1445.5 ± 0.79
273.15 K, 101 kPa	1230.4 ± 0.69
273.15 K, 5095 kPa	1258.5 ± 0.71
273.15 K, 10288 kPa	1286.1 ± 0.72
273.15 K, 15102 kPa	1310.6 ± 0.73
273.15 K, 19986 kPa	1334.4 ± 0.74
273.15 K, 25007 kPa	1357.9 ± 0.75
273.15 K, 30061 kPa	1380.6 ± 0.76
293.15 K, 101 kPa	1159.8 ± 0.66
293.15 K, 5052 kPa	1190 ± 0.68
293.15 K, 9984 kPa	1218.5 ± 0.69
293.15 K, 15097 kPa	1246.4 ± 0.7
293.15 K, 20038 kPa	1272.2 ± 0.71
293.15 K, 25073 kPa	1297.3 ± 0.72
293.15 K, 30034 kPa	1321 ± 0.73
313.15 K, 101 kPa	1091.6 ± 0.63
313.15 K, 5015 kPa	1124.4 ± 0.65
313.15 K, 10081 kPa	1156 ± 0.66
313.15 K, 15057 kPa	1185.3 ± 0.67
313.15 K, 20137 kPa	1213.6 ± 0.69
313.15 K, 25255 kPa	1240.7 ± 0.7
313.15 K, 30161 kPa	1265.5 ± 0.71
333.15 K, 101 kPa	1024.9 ± 0.6
333.15 K, 5287 kPa	1062.5 ± 0.62
333.15 K, 10309 kPa	1096.4 ± 0.63
333.15 K, 15132 kPa	1126.9 ± 0.65
333.15 K, 20140 kPa	1156.7 ± 0.66
333.15 K, 25071 kPa	1184.6 ± 0.67
333.15 K, 30117 kPa	1211.7 ± 0.69
353.15 K, 110 kPa	957.67 ± 0.57
353.15 K, 5428 kPa	1000.1 ± 0.59
353.15 K, 10327 kPa	1036.1 ± 0.61
353.15 K, 15492 kPa	1071.3 ± 0.62
353.15 K, 20337 kPa	1102.3 ± 0.64
353.15 K, 25296 kPa	1132.1 ± 0.65
353.15 K, 29944 kPa	1158.6 ± 0.66

CO [methanol]
Details	speed of sound [m/s]
253.15 K, 101 kPa	1259.4 ± 0.68
253.15 K, 5031 kPa	1283.6 ± 0.69
253.15 K, 10064 kPa	1307.3 ± 0.7
253.15 K, 15070 kPa	1329.9 ± 0.71
253.15 K, 20048 kPa	1351.5 ± 0.72
253.15 K, 25130 kPa	1372.8 ± 0.73
253.15 K, 30260 kPa	1393.5 ± 0.74
273.15 K, 101 kPa	1187.3 ± 0.65
273.15 K, 5017 kPa	1213.8 ± 0.66
273.15 K, 10158 kPa	1240 ± 0.67
273.15 K, 15070 kPa	1264 ± 0.68
273.15 K, 20132 kPa	1287.6 ± 0.69
273.15 K, 25155 kPa	1310.1 ± 0.7
273.15 K, 30074 kPa	1331.4 ± 0.71
293.15 K, 101 kPa	1119.1 ± 0.62
293.15 K, 5028 kPa	1147.8 ± 0.63
293.15 K, 10032 kPa	1175.5 ± 0.65
293.15 K, 15145 kPa	1202.4 ± 0.66
293.15 K, 20159 kPa	1227.6 ± 0.67
293.15 K, 25062 kPa	1251.1 ± 0.68
293.15 K, 30276 kPa	1275.1 ± 0.69
313.15 K, 101 kPa	1053.2 ± 0.59
313.15 K, 5046 kPa	1084.8 ± 0.61
313.15 K, 10127 kPa	1115.4 ± 0.62
313.15 K, 15085 kPa	1143.5 ± 0.63
313.15 K, 19989 kPa	1170 ± 0.64
313.15 K, 25090 kPa	1196.1 ± 0.65
313.15 K, 30009 kPa	1220.1 ± 0.66
333.15 K, 101 kPa	988.92 ± 0.57
333.15 K, 5029 kPa	1023.7 ± 0.58
333.15 K, 10110 kPa	1056.9 ± 0.59
333.15 K, 15215 kPa	1088.2 ± 0.61
333.15 K, 20093 kPa	1116.3 ± 0.62
333.15 K, 25061 kPa	1143.5 ± 0.63
333.15 K, 30122 kPa	1169.9 ± 0.64
353.15 K, 197 kPa	925.58 ± 0.54
353.15 K, 5097 kPa	963.76 ± 0.56
353.15 K, 10106 kPa	999.62 ± 0.57
353.15 K, 15143 kPa	1033 ± 0.58
353.15 K, 20216 kPa	1064.5 ± 0.6
353.15 K, 25221 kPa	1093.7 ± 0.61
353.15 K, 30092 kPa	1120.6 ± 0.62

CCCO [propan-1-ol]
Details	speed of sound [m/s]
253.15 K, 102 kPa	1368 ± 0.69
253.15 K, 5133 kPa	1393 ± 0.7
253.15 K, 10109 kPa	1416.6 ± 0.71
253.15 K, 15198 kPa	1439.9 ± 0.72
253.15 K, 20092 kPa	1461.4 ± 0.73
253.15 K, 25341 kPa	1483.7 ± 0.74
253.15 K, 30423 kPa	1504.6 ± 0.75
273.15 K, 101 kPa	1293.5 ± 0.67
273.15 K, 5181 kPa	1320.8 ± 0.68
273.15 K, 10163 kPa	1346.3 ± 0.69
273.15 K, 15287 kPa	1371.4 ± 0.7
273.15 K, 20261 kPa	1394.8 ± 0.7
273.15 K, 25076 kPa	1416.6 ± 0.71
273.15 K, 30164 kPa	1438.9 ± 0.72
293.15 K, 105 kPa	1222.5 ± 0.64
293.15 K, 5042 kPa	1251.2 ± 0.65
293.15 K, 10141 kPa	1279.3 ± 0.66
293.15 K, 15272 kPa	1306.3 ± 0.67
293.15 K, 20136 kPa	1330.7 ± 0.68
293.15 K, 25068 kPa	1354.6 ± 0.69
293.15 K, 30231 kPa	1378.5 ± 0.7
313.01 K, 30237 kPa	1321.2 ± 0.68
313.15 K, 108 kPa	1154.1 ± 0.61
313.15 K, 5139 kPa	1185.8 ± 0.62
313.15 K, 10136 kPa	1215.4 ± 0.64
313.15 K, 15128 kPa	1243.6 ± 0.65
313.15 K, 20151 kPa	1270.6 ± 0.66
313.15 K, 25136 kPa	1296.1 ± 0.67
333.15 K, 101 kPa	1086.8 ± 0.59
333.15 K, 5018 kPa	1120.5 ± 0.6
333.15 K, 10050 kPa	1152.8 ± 0.61
333.15 K, 15186 kPa	1183.9 ± 0.62
333.15 K, 20183 kPa	1212.5 ± 0.64
333.15 K, 25121 kPa	1239.5 ± 0.65
333.15 K, 30028 kPa	1265 ± 0.66
353.15 K, 104 kPa	1018.9 ± 0.56
353.15 K, 5034 kPa	1056 ± 0.58
353.15 K, 10009 kPa	1090.8 ± 0.59
353.15 K, 15132 kPa	1124.2 ± 0.6
353.15 K, 20099 kPa	1154.8 ± 0.61
353.15 K, 25054 kPa	1183.6 ± 0.62
353.15 K, 30493 kPa	1213.6 ± 0.64
